Reference: the supplement of paper PMC10627819

Legend:
Assay in all cases: fitness (endpoint OD595 vs no drug) (fraction); higher = more growth
S. pneumoniae D39V = tested on: S. pneumoniae D39V
How it was run: (§1)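 With the first reading as background, OD595 was measured every 30 min for 14 h in 384-well plates kept at 37 °C and inoculated at OD595 0.01. TSB, LB Lennox or CY was the medium. Fitness is the optical density at the transition into stationary phase divided by the robust mean of no-drug control wells, with a cap of 1.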

S. aureus DSM 20231 = tested on: S. aureus DSM 20231
How it was run: as §1

S. aureus Newman = tested on: S. aureus Newman
How it was run: as §1
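Further: OD595 on entry to stationary phase over no-drug wells; at most 1.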

CO[C@@]12[C@H](COC(N)=O)C3=C(C(=O)C(C)=C(N)C3=O)N1C[C@@H]1N[C@@H]12 [Mitomycin C] + CCC(C)C1C(=O)NC(=C)C(=O)NC(C(=O)NC(CSCC(C(=O)N1)NC(=O)/C(=C/C)/NC(=O)C(C(C)CC)N)C(=O)NC2C(SCC(NC(=O)CNC(=O)C3CCCN3C2=O)C(=O)NC(CCCCN)C(=O)NC4C(SCC(NC(=O)CNC(=O)C(NC(=O)C(NC(=O)C(NC(=O)CNC4=O)C)CC(C)C)CCSC)C(=O)NC(CC(=O)N)C(=O)NC(CCSC)C(=O)NC(CCCCN)C(=O)NC5C(SCC6C(=O)NC(C(=O)NC(CSC(C(C(=O)N6)NC(=O)C(NC5=O)C)C)C(=O)NC(CO)C(=O)NC(C(C)CC)C(=O)NC(CC7=CN=CN7)C(=O)NC(C(C)C)C(=O)NC(=C)C(=O)NC(CCCCN)C(=O)O)CC8=CN=CN8)C)C)C)CC(C)C [Nisin]
fitness, S. pneumoniae D39V, main component drawn
Settings | first compound 0.001075 µg/mL | first compound 0.002 µg/mL | first compound 0.00215 µg/mL | first compound 0.004 µg/mL | first compound 0.0043 µg/mL | first compound 0.008 µg/mL
partner 0.4275 µg/mL | – | 0.982 | – | 0.838 | – | 0.636
partner 0.855 µg/mL | – | 0.943 | – | 0.844 | – | 0.538
partner 1.6 µg/mL | 0.0489 | – | 0.0715 | – | 0.0313 | –
partner 1.71 µg/mL | – | 0.0782 | – | 0.0797 | – | 0.0351
partner 3.2 µg/mL | 0.0397 | – | 0.038 | – | 0.0122 | –
partner 6.4 µg/mL | 0.0247 | – | 0.0066 | – | 0.0194 | –

CO[C@@]12[C@H](COC(N)=O)C3=C(C(=O)C(C)=C(N)C3=O)N1C[C@@H]1N[C@@H]12 [Mitomycin C] + COc1ccc(C[C@H](N)C(=O)N[C@H]2[C@@H](O)[C@H](n3cnc4c(N(C)C)ncnc43)O[C@@H]2CO)cc1 [Puromycin]
fitness
Settings | first compound 0.001075 µg/mL | first compound 0.00215 µg/mL | first compound 0.0043 µg/mL | first compound 0.0156 µg/mL | first compound 0.0312 µg/mL | first compound 0.0625 µg/mL
S. aureus DSM 20231, partner 0.39 µg/mL | – | – | – | 0.759 | 0.758 | 0.593
S. aureus DSM 20231, partner 0.78 µg/mL | – | – | – | 0.776 | 0.78 | 0.638
S. aureus DSM 20231, partner 1.56 µg/mL | – | – | – | 0.752 | 0.699 | 0.582
S. aureus Newman, partner 0.39 µg/mL | – | – | – | 0.79 | 0.651 | 0.552
S. aureus Newman, partner 0.78 µg/mL | – | – | – | 0.766 | 0.704 | 0.604
S. aureus Newman, partner 1.56 µg/mL | – | – | – | 0.764 | 0.662 | 0.494
S. pneumoniae D39V, partner 1 µg/mL | 0.986 | 0.968 | 0.867 | – | – | –
S. pneumoniae D39V, partner 2 µg/mL | 0.935 | 0.915 | 0.781 | – | – | –
S. pneumoniae D39V, partner 4 µg/mL | 0.798 | 0.775 | 0.654 | – | – | –

fitness, one replicate
Settings | first compound 0.002 µg/mL | first compound 0.004 µg/mL | first compound 0.008 µg/mL | first compound 0.0156 µg/mL | first compound 0.0312 µg/mL | first compound 0.0625 µg/mL
S. aureus DSM 20231, partner 3.12 µg/mL | – | – | – | 0.807 | 0.594 | 0.363
S. aureus DSM 20231, partner 6.24 µg/mL | – | – | – | 0.27 | 0.219 | 0.114
S. pneumoniae D39V, partner 1 µg/mL | 0.798 | 0.786 | 0.685 | – | – | –
S. pneumoniae D39V, partner 2 µg/mL | 0.783 | 0.762 | 0.692 | – | – | –
S. pneumoniae D39V, partner 4 µg/mL | 0.628 | 0.612 | 0.541 | – | – | –
